Tests used:
[1] = tested on: bone marrow derived DCs (BMDCs); test: In vitro co-culture of BMDC with 6-thio-dG pretreated tumor cells and T cells; type: cell-based, mouse
Protocol: In vitro co-culture of bone marrow dendritic cells (BMDC) and T cells. Single-cell suspensions of bone marrow (BM) cells were collected from tibias and femurs of C57BL/6 mice. The BM cells were placed in 10 cm dish and cultured with complete RPMI 1640 medium containing 20 ng/mL recombinant mouse GM-CSF (BioLegend). Fresh medium with was added into the culture on day 3 and day 6. The BMDCs were harvested Day 7. CD8+ T cells were isolated from lymph nodes and spleens of OT-1 transgenic mice with a negative CD8+ T cell isolation kit (Stemcell). MC38-OVA cells pretreated with 200 nM 6-thio-dG for 4 hrs. Then the drug was washed out, tumor cells were continued to culture for 72 hrs and were harvested on the same day as BMDC harvest. Then MC38-OVA cells were co-cultured with BMDC for overnight. Supernatant was collected for IFN-β ELISA test (PBL). BMDCs were sorted with CD11c+ positive selection kit (Stemcell) and co-cultured with OT-1 CD8+ T cells for 48 hrs. Supernatants were collected and IFN-γ was measured by cytometric bead array assay (BD Biosciences).
Quantitative real-time PCR. Real-time PCR was performed with SsoAdvanced™ Universal SYBR® Green Supermix (Bio-Rad) according to the manufacturer's instructions with different primer sets (human MT-CO1, forward primer 5′-[…]-3′ (SEQ ID NO: 3), reverse primer 5′-CGGGGCATTCCG GATAGGCC-3′ (SEQ ID NO: 4); human18s rRNA, forward primer 5′-[…]-3′ (SEQ ID NO: 5), reverse primer 5′-[…]-3′ (SEQ ID NO: 6); mouse IFN-β, forward primer 5′-ATGAGTGGTGGTTGCAGGC-3′ (SEQ ID NO: 7), reverse primer 5′-[…]-3′ (SEQ ID NO: 8); mouse GAPDH, forward primer 5′-CATCAAGAA GGTGGTGAAGC-3′ (SEQ ID NO: 9), reverse primer 5′-[…]-3′) (SEQ ID NO: 10) mouse GAPDH was used as the internal control. 2^−ΔΔCt method was used to calculate relative expression changes.

MC38 cells = test: Telomere dysfunction Induced Foci (TIF) and micronuclei assays in cells; type: cell-based, mouse
Protocol: Telomere dysfunction Induced Foci (TIF) and micronuclei assays. The TIF assay is based on the co-localization detection of DNA damage by an antibody against DNA damage response factors such as gamma-H2AX, 53BP1, and antibody against telomeric proteins or telomeres using telomere sequence-specific peptide nucleic acid (PNA) probe (Mender and Shay, 2015). Briefly, cells were seeded into 4-well chamber slides. Next day, cells were treated with 1 μM 6-thio-dG for 24 hrs (for TIF assay) or 1-3 μM 6-thio-dG for 48 hrs (for micronuclei assay). Slides were then rinsed twice with PBS and fixed in 4% formaldehyde (Thermo Fisher) in PBS for 10 mins. Then, cells were washed twice with PBS and permeabilized in 0.5% Triton X-100 in PBS for 10 min. Following permeabilization, cells were washed three times with PBS. Cells were blocked with 10% goat serum in 0.1% PBST (TritonX-100) for 1 hr. Gamma-H2AX (TIF assay, mouse, 1:1000) (Millipore) or lamin A/C (micronuclei assay, mouse, 1:500) (Santa Cruz) was diluted in blocking solution and incubated on cells for 2 hrs. Following three washes with PBST (1×PBS in 0.1% Triton) and 3 washes with PBS, cells were incubated with Alexaflour 568 conjugated goat anti-mouse (1:500) (Invitrogen) for 40 mins, then washed five times with 0.1% PBST. Cells were fixed in 4% formaldehyde in PBS for 20 mins at RT. The slides were sequentially dehydrated with 70%, 90%, 100% ethanol followed by denaturation with hybridization buffer containing FAM-conjugated telomere sequence (C-rich)-specific PNA probe, 70% formamide, 30% 2×SSC, 10% (w/v) MgCl2·6H2O (Fisher Sci), 0.25% (w/v) blocking reagent for nucleic acid hybridization and detection (Roche) for 7 mins at 80° C. on a heat block, followed by overnight incubation at RT. Slides were washed sequentially with 70% formamide (Ambion)/0.6×SSC (Invitrogen) (2×1 hr), 2×SSC (1×15 mins), PBS (1×5 mins) and sequentially dehydrated with 70%, 90%, 100% ethanol, then mounted with Vectashield mounting medium with DAPI (Vector Laboratories). […] TIFs were quantified using Image J.

[2] = tested on: mouse BMDC co-cultured with HCT116; test: Cytosolic DNA extraction and qPCR in DCs co-cultured with HCT116; type: cell-based; conditions: HCT116 pretreated with 500 nM 6-thio-dG; co-culture 4 hrs
Protocol: Cytosolic DNA extraction and quantitative real-time PCR. HCT 116 cells were pretreated with 500 nM 6-thio-dG for 4 hrs. Then drug was washed out, tumor cells were continued to culture for 72 hrs and harvest on the same day as BMDC harvest. Then HCT116 cells were mixed 1:1 with 1×10^6 BMDC for 4 hrs. BMDC was purified and divided into two equal aliquots.
One aliquot was extracted for total genomic DNA with Purelink Genomic DNA kit (Invitrogen) and served as normalization control. The other aliquot was resuspended in 100 μL cytosolic extract buffer containing 150 mM NaCl, 50 mM HEPES and […] digitonin (Sigma) and incubated for 10 mins at RT for plasma membrane permeabilization (West et al., 2015). Then cells were centrifuged to pellet intact cells. The cytosolic supernatants were collected and centrifuged at 12000 g for 10 mins to pellet the remaining cellular debris. Then cytosolic DNA was extracted with Purelink Genomic DNA kit (Invitrogen). Quantitative PCR was performed on both whole-cell extracts and cytosolic fractions using human DNA primers and mouse DNA primers (Xu et al., 2017).
Quantitative real-time PCR. […]

HCT116 tumor cells = test: HCT116 tumor model in NSG-SGM3 and humanized NSG-SGM3 mice; type: in vivo, mouse; conditions: three doses, 3 mg/kg
Description: Humanized mouse tumor models. Humanized mouse reconstitution was previously described (Qiao et al., 2019). Briefly, four-week-old NSG-SGM3 female mice were irradiated with 100 cGy (X-ray irradiation with X-RAD 320 irradiator) one day prior to human CD34+ cells transfer. Cord blood was obtained from UT Southwestern Parkland Hospital. Human CD34+ cells were purified from cord blood by density gradient centrifugation (Ficoll® Paque Plus, GE healthcare) followed by positive immunomagnetic selection with anti-human CD34 microbeads (Stemcell). 1×10^5 CD34+ cells were intravenously injected into each recipient mouse. 12 weeks after engraftment, humanized mice with over 50% human CD45+ cells reconstitution and age and sex matched non-humanized mice were inoculated with 1×10^6 HCT116 tumor cells subcutaneously on the right flank. 3 mg/kg 6-thio-dG was intraperitoneally given on days 7, 8 and 9. Tumor volumes were measured twice a week. Experiments were performed in compliance with UTSW Human Investigation Committee protocol and UTSW Institutional Animal Care and Use Committee.

cancer cells = conditions: depending on cell type, even including therapy resistant cancers; read-out: observed IC50 values; cited from earlier work

Q: Which results are given for `Nc1nc2c(ncn2[C@H]2C[C@H](O)[C@@H](CO)O2)c(=S)[nH]1` [6-thio-dG, 6-thio-2′-deoxyguanosine]?
A: IFN-γ production by OT-1 CD8+ T cells (cross-priming capacity of DCs) ([1]; MC38-OVA pretreated with 200 nM 6-thio-dG, DC/T cell co-culture 48 hrs, CBA): significant increase; IFN-β in DCs, WT vs Tmem173KO ([1]; MC38 pretreated with 200 nM 6-thio-dG, qPCR): induced IFN-β production in DCs in a STING-dependent manner; IFN-β production by DCs ([1]; co-culture with tumor cells pretreated with 200 nM 6-thio-dG, ELISA): significantly increased; interphase bridges between daughter cells during telophase (MC38 cells): induced interphase bridges; telomere stress by TIF assay (MC38 cells; 1 μM 6-thio-dG for 24 hrs): induced telomere damages; micronuclei (MC38 cells; 1 μM 6-thio-dG, 48 hrs): induced micronuclei; human DNAs (MT-CO1 and human 18S) in the cytosol of mouse DCs [2]: increase; tumor growth (HCT116 tumor cells; humanized NSG-SGM3 mice): significantly delayed tumor growth; tumor growth (HCT116 tumor cells; immunocompromised NSG-SGM3 mice): did not have significant difference; IC50 (cancer cells): 700 to 2900 nM

Source: patent US12097213B2, “Sequential treatment of cancers using 6-thio-dG, checkpoint inhibitors and radiation therapy” (The Board of Regents of the University of Texas System, priority 2020, dated 2024)
